Test results reported in publication PMC4394430, “Licochalcone A, a Polyphenol Present in Licorice, Suppresses UV-Induced COX-2 Expression by Targeting PI3K, MEK1, and B-Raf” (International Journal of Molecular Sciences, 2015).

Columns and labels:
[1] = biological target: T1, B-Raf (Homo sapiens, UniProt P15056); settings: 10 and 100 uM ATP; 4 C; competitive with LicoA
T1 construct: gene BRAF

[2] = biological target: T1, B-Raf; assay: LicoA-Sepharose 4B pull-down, immunoblot; format: binding; settings: pH 7.5; 4 C; immobilised LicoA; blocked by ATP (ATP-competitive)
[3] = biological target: T1, B-Raf; assay: […] kinase assay, inactive MEK1 and MBP peptide; format: biochemical; settings: 5 and 10 uM LicoA; pH 7.5; 30 C; coupled readout; ATP-competitive
[4] = biological target: T2, MEK1 (Homo sapiens, UniProt Q02750); assay: LicoA-Sepharose 4B pull-down, immunoblot; format: binding; settings: pH 7.5; 4 C; immobilised LicoA; not blocked by ATP (non-competitive)
T2 construct: gene MAP2K1
T2 sequence (Q02750 whole entry): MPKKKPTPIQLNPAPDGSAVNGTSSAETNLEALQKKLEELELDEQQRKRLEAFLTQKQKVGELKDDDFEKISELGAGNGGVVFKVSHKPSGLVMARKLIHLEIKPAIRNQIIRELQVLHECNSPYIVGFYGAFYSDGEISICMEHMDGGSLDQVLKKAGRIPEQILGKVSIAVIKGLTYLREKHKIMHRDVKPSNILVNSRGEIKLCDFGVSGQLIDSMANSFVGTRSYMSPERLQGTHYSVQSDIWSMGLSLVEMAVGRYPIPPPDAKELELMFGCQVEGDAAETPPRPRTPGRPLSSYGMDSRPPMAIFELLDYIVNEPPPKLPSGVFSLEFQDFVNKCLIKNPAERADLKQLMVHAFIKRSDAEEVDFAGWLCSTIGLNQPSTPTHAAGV

T1 sequence (P15056 2-766): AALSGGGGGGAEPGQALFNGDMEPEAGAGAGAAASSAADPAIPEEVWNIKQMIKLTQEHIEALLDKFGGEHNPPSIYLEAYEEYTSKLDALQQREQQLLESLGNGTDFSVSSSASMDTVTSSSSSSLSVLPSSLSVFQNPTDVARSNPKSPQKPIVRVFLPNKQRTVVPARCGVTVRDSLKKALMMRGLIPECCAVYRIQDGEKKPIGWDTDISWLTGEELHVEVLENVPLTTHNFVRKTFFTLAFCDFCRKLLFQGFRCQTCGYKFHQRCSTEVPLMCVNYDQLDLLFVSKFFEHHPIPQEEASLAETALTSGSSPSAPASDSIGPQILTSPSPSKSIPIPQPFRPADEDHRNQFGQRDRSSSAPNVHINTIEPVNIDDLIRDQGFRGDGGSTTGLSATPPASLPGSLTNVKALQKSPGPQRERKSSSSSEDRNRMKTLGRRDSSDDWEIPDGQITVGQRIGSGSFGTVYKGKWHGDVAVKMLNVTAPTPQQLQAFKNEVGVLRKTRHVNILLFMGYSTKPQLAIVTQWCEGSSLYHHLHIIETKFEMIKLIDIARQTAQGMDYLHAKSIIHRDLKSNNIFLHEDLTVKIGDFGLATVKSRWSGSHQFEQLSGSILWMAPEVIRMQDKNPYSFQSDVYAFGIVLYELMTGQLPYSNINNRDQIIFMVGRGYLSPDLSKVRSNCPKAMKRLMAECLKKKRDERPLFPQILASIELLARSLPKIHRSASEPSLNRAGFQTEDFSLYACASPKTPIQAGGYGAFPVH

| Structure (SMILES) | ATP competition with LicoA-Sepharose 4B pull-down [1] | LicoA-Sepharose 4B pull-down, immunoblot [2] | % inhibition [3] | LicoA-Sepharose 4B pull-down, immunoblot [4] |
| --- | --- | --- | --- | --- |
| Nc1ncnc2c1ncn2[C@@H]1O[C@H](COP(=O)(O)OP(=O)(O)OP(=O)(O)O)[C@@H](O)[C@H]1O [ATP] | ATP treatment blocked the binding ability of LicoA with PI3K (Figure 4B) and B-Raf (Figure 4F) | – | – | – |
| C=CC(C)(C)c1cc(/C=C/C(=O)c2ccc(O)cc2)c(OC)cc1O [LicoA, Licochalcone A] | – | LicoA binds with PI3K and B-Raf in competition with ATP | strongly blocked B-Raf (Figure 3C) activity in a dose-dependent manner | LicoA binds with MEK1 in an ATP non-competitive manner |
